Usually IC50 stands for the concentration at which inhibition is half-maximal. A lower IC50 goes with greater potency. For orientation: EC50 means the concentration needed to bring the measured effect to its halfway point.

In assay [1] the target is T1, Nuclear receptor ROR-gamma (Homo sapiens, UniProt P51449).
T1 sequence (P51449 whole entry): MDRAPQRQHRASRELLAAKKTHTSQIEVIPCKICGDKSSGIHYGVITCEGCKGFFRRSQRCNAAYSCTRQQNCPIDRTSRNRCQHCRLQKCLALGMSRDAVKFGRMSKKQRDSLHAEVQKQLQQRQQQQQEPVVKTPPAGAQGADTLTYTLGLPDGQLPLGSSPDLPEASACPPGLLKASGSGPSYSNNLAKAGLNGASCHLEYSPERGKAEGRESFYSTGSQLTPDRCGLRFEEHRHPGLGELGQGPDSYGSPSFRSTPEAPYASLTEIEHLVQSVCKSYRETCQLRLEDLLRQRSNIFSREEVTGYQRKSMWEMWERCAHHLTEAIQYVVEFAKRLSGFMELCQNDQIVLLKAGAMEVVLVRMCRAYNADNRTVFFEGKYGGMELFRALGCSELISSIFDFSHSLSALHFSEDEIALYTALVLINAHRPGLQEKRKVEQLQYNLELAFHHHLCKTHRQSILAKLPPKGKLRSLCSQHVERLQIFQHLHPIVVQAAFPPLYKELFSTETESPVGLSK
Description: Displacement of [3H2]-25-hydroxycholesterol from N-terminal 6xHis-tagged human RORc ligand binding domain (241 to 486) expressed in bacterial expression system after 3 hrs by scintillation counting analysis

For assay [2], the target named is T1, Nuclear receptor ROR-gamma. This is another data set of the same source.
Description: Inverse agonist activity at N-terminal 6xHis-tagged human RORc ligand binding domain (241 to 486) expressed in bacterial expression system assessed as inhibition of SRC1 co-activator peptide recruitment after 3 hrs by TR-FRET analysis
In assay [3] the test system is PBMC. The assay can be described thus: Cytotoxicity against human PBMC assessed as effect on cell physiology after 48 hrs by CellTiter-Glo assay. (Cellular ATP, detected with luciferase, serves as a proxy for viable cell number.)
Assay [4] has as its system PBMC. The assay can be described thus: Antiinflammatory activity in human PBMC assessed as inhibition of IL-17 production after 48 hrs by Sandwich ELISA relative to control. The format is functional. (An ELISA detects its analyte on a solid surface through an enzyme-linked reagent.)
Assay [5] has as its system PBMC. The assay can be described thus: cells. Conditions: Homo sapiens, 48 h.
Assay [6] deals with PBMC. In words: Inhibition of IFNgamma production in human PBMC after 48 hrs by Sandwich ELISA.

The molecule `O=S(=O)(c1ccccc1)N1CCc2cc(C(O)(C(F)(F)F)C(F)(F)F)ccc21` displayed an IC50 in assay [1] of 883 nM. In assay [2], this molecule had an EC50 of 5 µM.

For the molecule `N#Cc1ccccc1S(=O)(=O)N(CC(F)(F)F)c1ccc(C(O)(C(F)(F)F)C(F)(F)F)cc1`, inhibition in assay [1] was half-maximal at 520 nM (IC50). Besides, in assay [2], the midpoint of the response, the EC50, lay at 0.92 µM.

In assay [1], `N#Cc1cccc(S(=O)(=O)N(CC(F)(F)F)c2ccc(C(O)(C(F)(F)F)C(F)(F)F)cc2)c1` returned a half-maximal inhibitory concentration (IC50) of 190 nM. The molecule further displayed a half-maximal effective concentration (EC50) in assay [2] of 0.1 µM.

As to `Cc1ccc(S(=O)(=O)N(CC(F)(F)F)c2ccc(C(O)(C(F)(F)F)C(F)(F)F)cc2)cc1`, 51 nM corresponded to half-maximal inhibition in assay [1] (IC50). The molecule further displayed an EC50 in assay [2] of 0.02 µM.

Regarding `O=S(=O)(c1cccnc1)N(CC(F)(F)F)c1ccc(C(O)(C(F)(F)F)C(F)(F)F)cc1`, half-maximal inhibition in assay [1] (IC50) required 748 nM. The EC50 in assay [2] stood at 1 µM.

As for `O=S(=O)(C1CC1)N(CC(F)(F)F)c1ccc(C(O)(C(F)(F)F)C(F)(F)F)cc1`, inhibition in assay [1] was half-maximal at 5000 nM (IC50). In other words, the single-digit micromolar range.

In assay [1], `O=S(=O)(Cc1ccccc1)N(CC(F)(F)F)c1ccc(C(O)(C(F)(F)F)C(F)(F)F)cc1` showed an IC50 of 520 nM. The EC50 in assay [2] was over 2 µM.

As for `O=S(=O)(c1ccccc1)N(CCO)c1ccc(C(O)(C(F)(F)F)C(F)(F)F)cc1`, the IC50 in assay [1] worked out at 4000 nM. In assay [2], this molecule showed an EC50 of 1 µM.

For the molecule `COCCN(c1ccc(C(O)(C(F)(F)F)C(F)(F)F)cc1)S(=O)(=O)c1ccccc1`, half-maximal inhibition in assay [1] (IC50) was put at 3000 nM. The molecule further returned an EC50 in assay [2] of over 10 µM.

Regarding `CS(=O)(=O)CCN(c1ccc(C(O)(C(F)(F)F)C(F)(F)F)cc1)S(=O)(=O)c1ccccc1`, in assay [1], the half-maximal inhibitory concentration (IC50) was over 10000 nM. The same molecule registered an EC50 in assay [2] of over 10 µM.

`CC(=O)NCCN(c1ccc(C(O)(C(F)(F)F)C(F)(F)F)cc1)S(=O)(=O)c1ccccc1`: in assay [1], the IC50 was over 10000 nM. This molecule also gave an EC50 in assay [2] of over 10 µM.

`O=C(O)CCN(c1ccc(C(O)(C(F)(F)F)C(F)(F)F)cc1)S(=O)(=O)c1ccccc1` registered an IC50 in assay [1] of over 10000 nM. In addition, the EC50 in assay [2] was over 10 µM.

On to `O=S(=O)(c1ccccc1)N(CCC(F)(F)F)c1ccc(C(O)(C(F)(F)F)C(F)(F)F)cc1`, for which, in assay [1], the IC50 turned out to be 519 nM. A half-maximal response in assay [2] (EC50) required 4 µM.

Take `O=S(=O)(c1ccccc1)N(Cc1ccccc1)c1ccc(C(O)(C(F)(F)F)C(F)(F)F)cc1`: the IC50 in assay [1] was 467 nM. This molecule had an EC50 in assay [2] of 8 µM.

`COC(c1ccc(N(CC(F)(F)F)S(=O)(=O)c2ccccc2)cc1)(C(F)(F)F)C(F)(F)F`: in assay [1], the IC50 came out at 900 nM. Besides, a half-maximal response in assay [2] (EC50) required 9 µM.

As to `O=C(O)c1ccc(N(CC(F)(F)F)S(=O)(=O)c2ccccc2)cc1`, the IC50 in assay [1] is over 10000 nM. This molecule showed an EC50 in assay [2] of over 10 µM.

Take `NC(=O)c1ccc(N(CC(F)(F)F)S(=O)(=O)c2ccccc2)cc1`: the IC50 in assay [1] was over 10000 nM. The EC50 in assay [2] is over 10 µM.

Take `NS(=O)(=O)c1ccc(N(CC(F)(F)F)S(=O)(=O)c2ccccc2)cc1`: half-maximal inhibition in assay [1] (IC50) required 9000 nM. Moreover, the EC50 in assay [2] is over 10 µM.

On to `CCN(c1cccc(C(O)(C(F)(F)F)C(F)(F)F)c1)S(=O)(=O)c1ccccc1`, for which the IC50 in assay [1] stood at 329 nM. In assay [2], this molecule displayed an EC50 of 0.9 µM.

For `O=C(c1ccccc1)N(CC(F)(F)F)c1ccc(C(O)(C(F)(F)F)C(F)(F)F)cc1`, the IC50 in assay [1] came to 2000 nM. Further, in assay [2], the EC50 came to 4 µM.

In assay [1], `O=C(Nc1ccc(C(O)(C(F)(F)F)C(F)(F)F)cc1)c1ccccc1` showed an IC50 of over 10000 nM. In assay [2], the EC50 was over 10 µM.

As for `O=C(Nc1ccc(C(O)(C(F)(F)F)C(F)(F)F)cc1)c1ccc(C(F)(F)F)cc1`, in assay [1], the IC50 was over 10000 nM. Further, the EC50 in assay [2] is over 10 µM.

As for `CC(=O)Nc1nc(C)c(S(=O)(=O)Nc2ccc(C(O)(C(F)(F)F)C(F)(F)F)cc2)s1`, half-maximal inhibition in assay [1] (IC50) required 2000 nM. This molecule also registered an EC50 in assay [2] of 0.911 µM.

Take `O=S(=O)(Nc1ccc(C(O)(C(F)(F)F)C(F)(F)F)cc1)c1ccccc1`: in assay [1], the IC50 is over 10000 nM.

In turn, `O=S(=O)(c1ccccc1)N(CC(F)(F)F)c1ccc(CO)cc1` displayed an IC50 in assay [1] of over 10000 nM. In addition, the EC50 in assay [2] was over 10 µM.

On to `O=S(=O)(c1ccccc1)N(CC(F)(F)F)c1ccc(C(O)(C(F)(F)F)C(F)(F)F)cc1` [T091317], for which the EC50 in assay [3] is over 20 µM; in assay [5], 3000 nM; in assay [6], over 20 µM. In addition, the Imax in assay [4] was 81%.

These data come from ChEMBL document CHEMBL3091433, “Structure-based design of substituted hexafluoroisopropanol-arylsulfonamides as modulators of RORc” (Bioorg Med Chem Lett, 2013).
